The source of these data is US5665738A, “Imidazole derivatives and processes for the preparation thereof” (Korea Research Institute of Chemical Technology, priority 1994, dated 1997).

For this assay, the system named is angiotensin II receptor. In words: Angiotensin II receptor binding assay ([3H] angiotensin II displacement). The settings on record: 60 minutes at 25° C., pH 7.2, test concentration not given. How it is done: The inventive compounds were tested to measure their angiotensin II receptor binding capacity as follows.
1. Angiotensin II receptor binding assay
In accordance with the procedure disclosed in Chiu, A. T. et al., Eur. J. Pharm., 157, 13 ([…])t a ligand marked with a radioistope was reacted with an angiotensin II receptor and the reactant was filtered with a glass fiber to remove unreacted ligand. After washing the filter, the amount of the remaining isotope was measured to determine the binding activity of the ligand, as described below in detail.
(i) Isolation of angiotensin II receptor
Sprague-Dawley rats and Wistar rats of 250 to 350 g (from The Korea Research Institute of Chemical Technology) were tested and the test procedures were carried out at 4° C., unless otherwise specified. Adrenal gland was separated from the Sprague-Dawley rats (liver, in the case of Wistar rats) into cortex and medulla. The separated adrenal cortex and medulla were washed with a sucrose buffer solution (0.2M sucrose, 1 mM EDTA, 10 mM Tris, pH 7.2) and homogenized in the same buffer solution by using a Teflon pestle and a Brinkmann homogenizer. The homogenates were centrifuged at 3,000× g for 10 minutes to remove precipitates and further centrifuged at 12,000× g for 13 minutes. The final supernatants were centrifuged at 102,000× g for 1 hour to obtain precipitates, which were washed with a Tris buffer solution (50 mM Tris, 5 mM MgCl2, pH 7.2) and re-centrifuged at 102,000× g for 1 hour. The resulting precipitates were immediately processed at the following step or stored at -70° C.
The precipitates were suspended in a Tris buffer solution. The amount of protein was determined by using a Bio-Rad DC protein analyzing kit and the protein concentration was adjusted to the amounts of: 0.2 to 0.3 mg/ml (Sprague-Dawley rat: adrenal cortex), 1.5 to 2.0 mg/ml (Sprague-Dawley rat: adrenal medulla), and 1.5 to 2.0 mg/ml (Wistar rat: liver). To the suspension, bovine serum albumin (BSA) was added to a concentration of 0.25 wt % and the resultant was immediately processed at the following step or stored at -70° C.
(ii) Measurement of angiotensin II receptor binding capacity
50 μl (based on ligand) of [^3 H] angiotensin II (NEN, NET-446) and 10 μl of each of the test compounds with various concentrations were added to the buffer solution (50 mM Tris (pH 7.2), 5 mM MgCl2, 0.25% BSA) to adjust the final volume to be 0.5 ml. Losartan (Dup 753), which is disclosed in EP No. 400,974 issued to Merck, was used as the control compound. 100 μl of the receptor suspension was added thereto and the resulting solution was reacted for 60 minutes while stirring in a water bath at 25° C. 3 ml of cold buffer solution for analysis was added to cease the reaction. The isotope which was bound to the receptor was isolated from the resultant by using Brandel Cell Harvester System with Whatman glass fiber GF/C. After washing the filter, the radioactivity of the filter was determined by using a liquid scintillation counter. Binding inhibition (%) of the test compound was calculated as follows:
Binding Inhibition (%)=[{(T-B)-(S-B)}/(T-B)]×100
wherein T is the radioactivity (cpm) of the reaction product untreated with the test compound, S is the radioactivity (cpm) of the reaction product treated with the test compound, and B is the radioactivity (cpm) of blank test.

Regarding `CCCCc1nc(Cl)c(C(=O)c2ccc(C=O)c[n+]2[O-])n1Cc1ccc(-c2ccccc2-c2nn[nH]n2)cc1` [Compound 23, {2-butyl-5-chloro-3-[(2'-(1H-tetrazol-5-yl)biphenyl-4-yl)methyl]-3H-imidazol-4-yl}(5-formyl-1-oxypyridin-2-yl)methanone], the “Binding Inhibition (%)” value was determined as 93.4%.

Turning to `CCCCc1nc(Cl)c(C(O)c2ccc(CO)c[n+]2[O-])n1Cc1ccc(-c2ccccc2-c2nn[nH]n2)cc1` (stereo not shown) [Compound 24, {2-butyl-5-chloro-3-[(2'-(1H-tetrazol-5-yl1)biphenyl1-4-yl)methyl1]-3H-imidazol-4-yl}(5-hydroxymethyl-1-oxypyridin-2-yl)methanol], the “Binding Inhibition (%)” value was found to be 76.1%.

For the molecule `CCCCc1nc(Cl)c(C(O)c2ccc(C(OC)OC)cn2)n1Cc1ccc(-c2ccccc2-c2nnn[nH]2)cc1` (stereo not shown) [Compound 25, {2-butyl-5-chloro-3-[(2'-(1H-tetrazol-5-yl)biphenyl-4-yl)methyl]-3H-imidazol-4-yl}[5-(dimethoxymethyl)pyridin-2-yl]methanol], the “Binding Inhibition (%)” value amounted to 87.8%.

Turning to `CCCCc1nc(Cl)c(C(=O)c2ccc(C(OC)OC)cn2)n1Cc1ccc(-c2ccccc2-c2nnn[nH]2)cc1` [Compound 26, {2-butyl-5-chloro-3-[(2'-(1H-tetrazol-5-yl)biphenyl-4-yl)methyl]-3H-imidazol-4-yl}[5-(dimethoxymethyl)pyridin-2-yl]methanone], the “Binding Inhibition (%)” value is 94.0%.

Turning to `CCCCc1nc(Cl)c(C(=O)c2ccc(C=O)cn2)n1Cc1ccc(-c2ccccc2-c2nn[nH]n2)cc1` [Compound 27, {2-butyl-5-chloro-3-[(2'-(1H-tetrazol-5-yl1)biphenyl-4-yl)methyl]-3H-imidazol-4-yl}(5-formylpyridin-2-yl)methanone], the “Binding Inhibition (%)” value is given as 81.3%.

Take `CCCCc1nc(Cl)c(C(=O)c2ccc(CO)cn2)n1Cc1ccc(-c2ccccc2-c2nn[nH]n2)cc1` [Compound 28]: the “Binding Inhibition (%)” value is reported as 78.9%.

`CCCCc1nc(Cl)c(C(=O)c2ccc(CCl)cn2)n1Cc1ccc(-c2ccccc2-c2nnn[nH]2)cc1` [Compound 29, {2-butyl-5-chloro-3-[(2'-(1H-tetrazol-5-yl)biphenyl-4-yl)methyl]-3H-imidazol-4-yl}[5-(chloromethyl)pyridin-2-yl]methanone]: the “Binding Inhibition (%)” value came to 83.6%.

Consider `CCCCc1nc(Cl)c(C(O)c2ccc(CO)cn2)n1Cc1ccc(-c2ccccc2-c2nnn[nH]2)cc1` (stereo not shown) [Compound 30, {2-butyl-5-chloro-3-[(2'-(1H-tetrazol-5-yl)biphenyl-4-yl)methyl]-3H-imidazol-4-yl}[5-(hydroxymethyl)pyridin-2-yl]methanol], for which the “Binding Inhibition (%)” value is given as 90.2%.

Turning to `CCCCc1nc(Cl)c(C(=O)c2ccc(CN(CC)CC)c[n+]2[O-])n1Cc1ccc(-c2ccccc2-c2nn[nH]n2)cc1` [Compound 31, {2-butyl-5-chloro-3-[(2'-(1H-tetrazol-5-yl)biphenyl-4-yl)methyl]-3H-imidazol-4-yl}[5-(diethylamino)methyl-1-oxypyridin-2-yl]methanone], the “Binding Inhibition (%)” value is 97.8%.

In the case of `CCCCc1nc(Cl)c(C(=O)c2ccc(C[N+]([O-])(CC)CC)c[n+]2[O-])n1Cc1ccc(-c2ccccc2-c2nn[nH]n2)cc1` [Compound 32, {2-butyl-5-chloro-3-[(2'-(1H-tetrazol-5-yl)biphenyl-4-yl)methyl]-3H-imidazol-4-yl}[5-((diethyl)(oxy)amino)methyl-1-oxypyridin-2-yl]methanone], the “Binding Inhibition (%)” value was 98.8%.

In the case of `CCCCc1nc(Cl)c(C(O)c2ccc(CN(CC)CC)cn2)n1Cc1ccc(-c2ccccc2-c2nnn[nH]2)cc1` (stereo not shown) [Compound 33, {2-butyl-5-chloro-3-[(2'-(1H-tetrazol-5-yl)biphenyl-4-yl)methyl]-3H-imidazol-4-yl}[5-((diethylamino)methyl)pyridin-2-yl]methanol], the “Binding Inhibition (%)” value came out at 73.3%.

For `CCCCc1nc(Cl)c(C(=O)c2ccc(CN(CC)CC)cn2)n1Cc1ccc(-c2ccccc2-c2nnn[nH]2)cc1` [Compound 34, {2-butyl-5-chloro-3-[(2'-(1H-tetrazol-5-yl)biphenyl-4-yl)methyl]-3H-imidazol-4-yl}[5-((diethylamino)methyl)pyridin-2-yl]methanone], the “Binding Inhibition (%)” value came out at 95.6%.

On to `CCCCc1nc(Cl)c(C(=O)c2ccc(C[N+]([O-])(CC)CC)cn2)n1Cc1ccc(-c2ccccc2-c2nn[nH]n2)cc1` [Compound 35, {2-butyl-5-chloro-3-[(2'-(1H-tetrazol-5-yl)biphenyl-4-yl)methyl]-3H-imidazo1-4-yl}{5-[((diethyl)(oxy)amino)methyl]pyridin-2-yl}methanone], for which the “Binding Inhibition (%)” value was 97.9%.

Take `CCCCc1nc(Cl)c(C(O)c2cccc(C(=O)N(CC)CC)[n+]2[O-])n1Cc1ccc(-c2ccccc2-c2nn[nH]n2)cc1` (stereo not shown) [Compound 36, {2-butyl-5-chloro-3-[(2'-(1H-tetrazol-5-yl)biphenyl-4-yl)methyl]-3H-imidazol-4-yl}[6-(diethylamino)carbonyl-1-oxypyridin-2-yl]methanol]: the “Binding Inhibition (%)” value is listed as 75.4%.

For the molecule `CCCCc1nc(Cl)c(C(=O)c2cccc(C(=O)N(CC)CC)[n+]2[O-])n1Cc1ccc(-c2ccccc2-c2nn[nH]n2)cc1` [Compound 37, {2-butyl-5-chloro-3-[(2'-(1H-tetrazol-5-yl)biphenyl-4-yl)methyl]-3H-imidazol-4-yl}[6-(diethylamino)carbonyl-1-oxypyridin-2-yl]methanone], the “Binding Inhibition (%)” value is on record as 92.8%.

Regarding `CCCCc1nc(Cl)c(C(=O)c2cccc(C=NO)[n+]2[O-])n1Cc1ccc(-c2ccccc2-c2nn[nH]n2)cc1` [Compound 38, {2-butyl-5-chloro-3-[(2'-(1H-tetrazol-5-yl)biphenyl-4-yl)methyl]-3H-imidazol-4-yl}[6-(hydroxyimino)methyl-1-oxypyridin-2-yl]methanone], the “Binding Inhibition (%)” value was determined as 95.4%.

As to `CCCCc1nc(Cl)c(C(=O)c2ccc(C(OC)OC)c(C)[n+]2[O-])n1Cc1ccc(-c2ccccc2-c2nn[nH]n2)cc1` [Compound 39, {2-butyl-5-chloro-3-[(2'-(1H-tetrazol-5-yl)biphenyl-4-yl)methyl]-3H-imidazol-4-yl}[5-(dimethoxymethyl)-6-methyl-1-oxypyridin-2-yl]methanone], the “Binding Inhibition (%)” value is 87.5%.

For the molecule `CCCCc1nc(Cl)c(C(=O)c2ccc(C=O)c(C)[n+]2[O-])n1Cc1ccc(-c2ccccc2-c2nn[nH]n2)cc1` [Compound 40, {2-butyl-5-chloro-3-[(2'-(1H-tetrazol-5-yl)biphenyl-4-yl)methyl]-3H-imidazol-4-yl}(5-formyl-6-methyl-1-oxypyridin-2-yl)methanone], the “Binding Inhibition (%)” value is on record as 90.4%.

On to `CCCCc1nc(Cl)c(CO)n1Cc1ccc(-c2ccccc2-c2nn[nH]n2)cc1` [Dup 753, Losartan, reference compound], for which the “Binding Inhibition (%)” value was found to be 48.0%.
